According to patent publication US8900845B2, “Methods and uses of KSR kinase, and mutations thereof” (Washington University, priority 2011, dated 2014):

Columns and labels:
FLAG-KSR and BRAF dimer = FLAG-KSR and BRAF dimer (Homo sapiens, UniProt P15056); test: Co-immunoprecipitation of KSR/BRAF dimers in drug-treated cells; format: cell-based; conditions: cells overexpressing FLAG-KSR and BRAF, drug for 1 hour, KSR immunoprecipitates immunoblotted for BRAF
Procedure: (§1) Dimerization experiments: For most experiments, constructs for wild-type and mutated BRAF, CRAF and KSR1 were appended with epitope tags (FLAG, 6× His, Myc, GFP) and were expressed by transient transfection into 293T cells. Cells were lysed in a buffer containing 1% NP40 and 0.1% deoxycholate. Cells were pretreated with drugs for 1 hour prior to lysis. Immunoprecipitates were analyzed by gel electrophoresis and immunoblotted after transfer to nitrocellulose membranes using standard methods.
(§2) Cells grown in serum, expressing combinations of KSR, BRAF and CRAF, were treated with both drugs. Co-immunoprecipitations were then performed to examine dimer formation.
(§3) KSR immunoprecipitates were prepared from cells overexpressing FLAG-KSR and BRAF after treatment with the indicated drug for 1 hour and immunoblotted using antibodies to BRAF.

[1] = biological target: KSR kinase activity towards MEK (Homo sapiens, UniProt P04049); conditions: cells co-expressing KSR and CRAF treated with 10 μM for one hour; immunoprecipitates pre-treated with 50 μM PLX
Procedure: Kinase reactions: Cells transfected with various constructs were treated or not with PLX4720 for 1-2 hours. Cells were lysed with 1% NP40 and immunoprecipitates prepared. In vitro kinase reactions were performed in a standard buffer with 10 mM MgCl2, with 1 ug of kinase dead MEK, and 100 uM cold ATP. In some experiments, to inhibit contaminating Raf activity, 50 uM PLX4720 was preincubated with the reactions.
To test whether KSR might be activated by CRAF, we co-expressed KSR and CRAF and induced dimerization of CRAF with KSR by adding a low dose (10 μM) of PLX4720. KSR immunoprecipitates were then prepared and tested for kinase activity in vitro. To inhibit any contaminating RAF kinase activity co-precipitating with KSR, we preincubated the immunoprecipitates with an inhibitory dose of PLX4720 (50 μM). […] Cells were co-transfected with WT or ATP binding deficient KSR and CRAF and immunoprecipitates prepared after cells were treated with an activating dose of PLX (10 μM) for one hour. Immunoprecipitates were prepared, pre-treated with 50 μM PLX to inhibit co-precipitating RAF activity and then tested for kinase activity using purified MEK.

BRAF/CRAF dimers = BRAF/CRAF dimers (Homo sapiens, UniProt P04049+P15056); conditions: cells overexpressing myc-CRAF and BRAF, drug for 1 hour, CRAF immunoprecipitates immunoblotted for BRAF
Procedure: as §1, §2, §3

KSR and CRAF dimer = biological target: T1, KSR and CRAF dimer (Homo sapiens, UniProt P04049); test: Co-immunoprecipitation of KSR/CRAF dimers in drug-treated cells; format: cell-based; conditions: cells overexpressing FLAG-KSR and myc-CRAF, drug for 1 hour, FLAG-KSR immunoprecipitates immunoblotted for CRAF (myc)
T1 construct: expressed in transfected cells; host or cells: 293T cells
Procedure: as §1, §2, §3

[2] = tested on: MEK phosphorylation (pMEK); test: MEK activation (pMEK immunoblot) in cells co-expressing KSR and CRAF; format: cell-based; conditions: saturating dose, 2 hours
Procedure: Kinase reactions: Cells transfected with various constructs were treated or not with PLX4720 for 1-2 hours. Cells were lysed with 1% NP40 and immunoprecipitates prepared.
In these experiments, we tested the function of the CRAF/KSR dimer by co-expressing both proteins and using PLX4720 (FIG. 1F) or GDC0879 (data not shown) to induce dimer formation between the two proteins. […] Cells expressing the indicated constructs were treated with a saturating dose of PLX for 2 hours before cell lysates were prepared and analyzed for pMEK by immunoblotting.

T1 sequence (P04049 whole entry): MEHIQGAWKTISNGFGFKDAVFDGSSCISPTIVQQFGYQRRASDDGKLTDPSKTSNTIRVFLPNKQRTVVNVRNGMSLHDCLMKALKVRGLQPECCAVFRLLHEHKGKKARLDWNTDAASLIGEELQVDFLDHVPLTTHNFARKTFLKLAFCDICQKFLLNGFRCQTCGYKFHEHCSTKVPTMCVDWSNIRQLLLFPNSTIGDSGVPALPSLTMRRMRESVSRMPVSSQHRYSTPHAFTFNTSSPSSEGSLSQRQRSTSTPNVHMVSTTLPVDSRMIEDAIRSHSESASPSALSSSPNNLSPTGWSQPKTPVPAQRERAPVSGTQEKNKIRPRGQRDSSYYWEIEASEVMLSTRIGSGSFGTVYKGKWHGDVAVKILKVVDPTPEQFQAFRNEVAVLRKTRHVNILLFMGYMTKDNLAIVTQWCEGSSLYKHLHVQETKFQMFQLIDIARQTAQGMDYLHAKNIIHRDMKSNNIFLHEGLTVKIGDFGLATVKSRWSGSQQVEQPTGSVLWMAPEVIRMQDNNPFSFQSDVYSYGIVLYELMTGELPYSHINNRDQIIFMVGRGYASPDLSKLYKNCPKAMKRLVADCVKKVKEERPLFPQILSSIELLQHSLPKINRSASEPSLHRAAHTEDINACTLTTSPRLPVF
T1 sequence (Q61097 whole entry partner): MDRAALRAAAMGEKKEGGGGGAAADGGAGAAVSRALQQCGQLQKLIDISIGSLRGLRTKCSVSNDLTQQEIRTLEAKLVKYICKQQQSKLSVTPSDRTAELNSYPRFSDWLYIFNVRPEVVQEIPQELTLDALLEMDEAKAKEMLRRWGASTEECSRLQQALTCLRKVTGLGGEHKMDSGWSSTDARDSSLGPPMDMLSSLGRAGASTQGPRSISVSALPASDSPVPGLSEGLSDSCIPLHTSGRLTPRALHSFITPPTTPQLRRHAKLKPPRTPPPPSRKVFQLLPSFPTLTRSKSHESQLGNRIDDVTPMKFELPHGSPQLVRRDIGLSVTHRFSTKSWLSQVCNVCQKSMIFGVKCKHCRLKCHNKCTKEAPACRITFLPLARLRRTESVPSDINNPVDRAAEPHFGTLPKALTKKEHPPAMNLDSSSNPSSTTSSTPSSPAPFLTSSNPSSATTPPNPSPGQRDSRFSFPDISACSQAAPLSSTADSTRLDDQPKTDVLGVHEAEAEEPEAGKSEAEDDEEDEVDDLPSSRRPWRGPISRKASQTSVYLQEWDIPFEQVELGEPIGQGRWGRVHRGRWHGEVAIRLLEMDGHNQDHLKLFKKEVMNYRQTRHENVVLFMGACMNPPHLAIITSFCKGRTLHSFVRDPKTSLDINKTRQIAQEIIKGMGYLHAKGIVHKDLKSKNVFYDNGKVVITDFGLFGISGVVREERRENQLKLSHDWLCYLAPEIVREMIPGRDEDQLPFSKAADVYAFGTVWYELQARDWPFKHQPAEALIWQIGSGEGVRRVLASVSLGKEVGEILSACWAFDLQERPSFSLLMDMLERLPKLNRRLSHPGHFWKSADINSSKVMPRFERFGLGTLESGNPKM
Chain of KSR kinase activity towards MEK (Q61097 whole entry partner): as above
Chain of KSR kinase activity towards MEK (P04049 whole entry): as the sequence (P04049 whole entry) above
Chain of BRAF/CRAF dimers (P15056 whole entry): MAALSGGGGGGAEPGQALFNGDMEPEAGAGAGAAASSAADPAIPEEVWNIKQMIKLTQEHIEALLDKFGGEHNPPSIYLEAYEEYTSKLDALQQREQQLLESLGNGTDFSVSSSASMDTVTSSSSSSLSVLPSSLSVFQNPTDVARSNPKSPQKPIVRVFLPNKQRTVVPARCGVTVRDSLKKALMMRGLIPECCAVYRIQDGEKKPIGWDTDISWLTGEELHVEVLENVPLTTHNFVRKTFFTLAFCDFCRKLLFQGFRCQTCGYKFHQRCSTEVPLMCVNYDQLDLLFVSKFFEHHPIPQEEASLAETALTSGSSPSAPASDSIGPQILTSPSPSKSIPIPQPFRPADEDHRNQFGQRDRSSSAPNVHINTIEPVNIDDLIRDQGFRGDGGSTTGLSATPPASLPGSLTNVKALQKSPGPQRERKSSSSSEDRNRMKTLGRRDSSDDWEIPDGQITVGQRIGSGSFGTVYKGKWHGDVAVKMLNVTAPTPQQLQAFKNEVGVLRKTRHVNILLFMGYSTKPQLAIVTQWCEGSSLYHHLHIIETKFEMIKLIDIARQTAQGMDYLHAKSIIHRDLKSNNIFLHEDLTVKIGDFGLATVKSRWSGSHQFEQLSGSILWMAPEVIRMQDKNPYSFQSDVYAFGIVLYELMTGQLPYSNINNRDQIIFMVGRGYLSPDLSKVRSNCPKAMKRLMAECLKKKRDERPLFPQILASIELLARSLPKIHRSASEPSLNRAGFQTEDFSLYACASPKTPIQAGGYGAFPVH
Chain of BRAF/CRAF dimers (P04049 whole entry): as the sequence (P04049 whole entry) above
Chain of FLAG-KSR and BRAF dimer (P15056 whole entry): as the sequence (P15056 whole entry) above
Chain of FLAG-KSR and BRAF dimer (Q61097 whole entry partner): as the sequence (Q61097 whole entry partner) above

CCCS(=O)(=O)Nc1ccc(F)c(C(=O)c2c[nH]c3ncc(Cl)cc23)c1F [PLX4720]
dimer formation between KSR and BRAF (FLAG-KSR and BRAF dimer): but not PLX4720 can induce dimer formation between FLAG-KSR and BRAF | kinase activity towards MEK in KSR immunoprecipitates [1]: induced kinase activity towards MEK in the KSR immunoprecipitates | dimer formation between BRAF and CRAF (BRAF/CRAF dimers): but not PLX4720 induces dimers between BRAF and CRAF | dimer formation between KSR and CRAF (KSR and CRAF dimer): induce dimer formation between KSR and CRAF | MEK activation (pMEK) [2]: MEK was still activated
